# In patent US8323971B2, “Differentiation of pluripotent cells into primary germ layer progenitors” (Cambridge Enterprise Limited, priority 2006, dated 2012):
# System: hESCs
# Assay: Microarray analysis of hESCs grown 36 h in CDM alone or CDM plus BMP4
# Assay type: cell-based, human
# Details: hESCs 36 h, CDM plus 10 ng/ml BMP4 vs CDM alone
# Source text: The change in RNA expression of genes associated with particular cell types is indicated in the following panels. […] In all tables, the ‘margin’ value represents the fold change in mRNA expression (log 2 scale) with a negative value indicating down regulation after BMP4 treatment compared to CDM alone.
# Sample RNA was hybridized to Affymetrix hg-u133+2 GeneChips ©. All sample arrays were background corrected, normalized and summarized using default parameters of the RMA model. Array processing was performed using the affy package of the Bioconductor (found on the world wide web at the hypertext protocol transfer address of “bioconductor.org”) suite of software for the R statistical programming language (found on the world wide web at the hypertext protocol transfer address of “r-project.org”). The resulting data set contained processed gene expression values for 54675 probe-sets. Analysis of Differential Regulation: The moderated t-statistic […], implemented in the Limma package of Bioconductor, was employed to assess the significance of differential gene (probe-set) expression between sample groups. In order to reduce errors associated with multiple hypothesis testing on such a scale, the significance p-values obtained were converted to corrected q-values using the FDR method.
# Data Visualisation: Heat maps of gene expression were created by importing relevant subsets of RMA processed microarray gene expression data into the dChip v1.3 microarray analysis package (found on the world wide web at the hypertext protocol transfer address of “biostat.harvard.edu/complab/dchip/”). In the case wherein a gene is represented by more than one probe-set on the array, a single probe-set was chosen to represent gene expression in the heat map according to highest mean expression over all samples (i.e. the most reliable sample hybridization regardless of group membership).
substance,measurement,value
BMP4: Bone Morphogenetic Protein 4 growth factor,"Margin, ACTC mRNA",4.16 log 2 scale
same,"Margin, ADRA2A mRNA",−2.49 log 2 scale
same,"Margin, AGTRL1 mRNA",4.35 log 2 scale
same,"Margin, AK3 mRNA",−2.55 log 2 scale
same,"Margin, ARGBP2 mRNA",−3.43 log 2 scale
same,"Margin, BAMBI mRNA",3.86 log 2 scale
same,"Margin, C2orf31 mRNA",−2.72 log 2 scale
same,"Margin, C10orf13 mRNA",−2.63 log 2 scale
same,"Margin, C14orf29 mRNA",−2.44 log 2 scale
same,"Margin, CACNA2D3 mRNA",−2.42 log 2 scale
same,"Margin, CDH11 mRNA",3.81 log 2 scale
same,"Margin, CFC1 mRNA",4.45 log 2 scale
same,"Margin, CHST9 mRNA",−2.54 log 2 scale
same,"Margin, CLIC5 mRNA",5.04 log 2 scale
same,"Margin, COL3A1 mRNA",4.47 log 2 scale
same,"Margin, CRH mRNA",5.13 log 2 scale
same,"Margin, CUZD1 mRNA",−2.4 log 2 scale
same,"Margin, CYP26A1 mRNA",−2.51 log 2 scale
same,"Margin, D21S2088E mRNA",−2.67 log 2 scale
same,"Margin, DIO2 mRNA",4.29 log 2 scale
same,"Margin, DKK4 mRNA",−3.09 log 2 scale
same,"Margin, DLX2 mRNA",6.43 log 2 scale
same,"Margin, DLX5 mRNA",4.04 log 2 scale
same,"Margin, DLX6 mRNA",4.66 log 2 scale
same,"Margin, EFNA1 mRNA",4.35 log 2 scale
same,"Margin, EPAS1 mRNA",6.2 log 2 scale
same,"Margin, ETV1 mRNA",−2.49 log 2 scale
same,"Margin, FLJ25477 mRNA",4.77 log 2 scale
same,"Margin, FLJ90231 mRNA",−3.15 log 2 scale
same,"Margin, FOXA2 mRNA (splice variant)",−3.38 log 2 scale
same,"Margin, FOXF1 mRNA",4.84 log 2 scale
same,"Margin, GABRP mRNA",7.34 log 2 scale
same,"Margin, GATA3 mRNA",6.21 log 2 scale
same,"Margin, GATA5 mRNA",4 log 2 scale
same,"Margin, GDF3 mRNA",−3.47 log 2 scale
same,"Margin, GPR64 mRNA",−2.46 log 2 scale
same,"Margin, H19 mRNA",3.98 log 2 scale
same,"Margin, HAND1 mRNA",7.27 log 2 scale
same,"Margin, HAPLN1 mRNA",8.04 log 2 scale
same,"Margin, HESX1 mRNA",−2.36 log 2 scale
same,"Margin, HEY1 mRNA",3.93 log 2 scale
same,"Margin, HHEX mRNA",−2.58 log 2 scale
same,"Margin, HOXB6 mRNA",5.19 log 2 scale
same,"Margin, ID4 mRNA",5.47 log 2 scale
same,"Margin, IGFBP3 mRNA",4.44 log 2 scale
same,"Margin, IPO9 mRNA",−2.83 log 2 scale
same,"Margin, ISL1 mRNA",6.5 log 2 scale
same,"Margin, KAL1 mRNA",−2.98 log 2 scale
same,"Margin, KCND2 mRNA",−2.74 log 2 scale
same,"Margin, KCTD12 mRNA",4.01 log 2 scale
same,"Margin, KIAA0882 mRNA",3.81 log 2 scale
same,"Margin, KLF4 mRNA",−2.4 log 2 scale
same,"Margin, KRT7 mRNA",3.91 log 2 scale
same,"Margin, LCK mRNA",−2.65 log 2 scale
same,"Margin, LECT1 mRNA",−2.55 log 2 scale
same,"Margin, LEFTY1 mRNA",−6.56 log 2 scale
same,"Margin, LEFTY2 mRNA",−3.12 log 2 scale
same,"Margin, LIX1 mRNA",4.3 log 2 scale
same,"Margin, LOC152573 mRNA",−5.04 log 2 scale
same,"Margin, LOC153469 mRNA",−4.72 log 2 scale
same,"Margin, LOC387763 mRNA",4.25 log 2 scale
same,"Margin, LRAT mRNA",−4.97 log 2 scale
same,"Margin, LRIG1 mRNA",−2.82 log 2 scale
same,"Margin, LUM mRNA",5.88 log 2 scale
same,"Margin, MAL2 mRNA",−2.37 log 2 scale
same,"Margin, MEGF10 mRNA",−3.14 log 2 scale
same,"Margin, MEIS1 mRNA",4.02 log 2 scale
same,"Margin, MESP1 mRNA",4.03 log 2 scale
same,"Margin, MGC26963 mRNA",−4.02 log 2 scale
same,"Margin, MSX1 mRNA",4.28 log 2 scale
same,"Margin, MSX2 mRNA",5.43 log 2 scale
same,"Margin, MYOCD mRNA",4.49 log 2 scale
same,"Margin, NANOG mRNA",−3.22 log 2 scale
same,"Margin, NCRMS mRNA",−2.98 log 2 scale
same,"Margin, NFE2L3 mRNA",−2.74 log 2 scale
same,"Margin, NODAL mRNA",−2.93 log 2 scale
same,"Margin, NOG mRNA",4.37 log 2 scale
same,"Margin, OLIG3 mRNA",−3.9 log 2 scale
same,"Margin, OTX2 mRNA",−4.89 log 2 scale
same,"Margin, PAPLN mRNA",−3.53 log 2 scale
same,"Margin, PARG1 mRNA",4.04 log 2 scale
same,"Margin, PIPOX mRNA",−2.58 log 2 scale
same,"Margin, POSTN mRNA",5.83 log 2 scale
same,"Margin, PPP2R2B mRNA",−3.6 log 2 scale
same,"Margin, PRKD1 mRNA",3.91 log 2 scale
same,"Margin, PRSS12 mRNA",4.09 log 2 scale
same,"Margin, PTPRZ1 mRNA",−2.37 log 2 scale
same,"Margin, RAM2 mRNA",−2.8 log 2 scale
same,"Margin, RET mRNA",−2.97 log 2 scale
same,"Margin, RGS4 mRNA",3.85 log 2 scale
same,"Margin, RGS5 mRNA",4.46 log 2 scale
same,"Margin, RGS13 mRNA",4.42 log 2 scale
same,"Margin, SEMA3C mRNA",3.89 log 2 scale
same,"Margin, SFRP1 mRNA",−2.36 log 2 scale
same,"Margin, SFRP2 mRNA",−2.75 log 2 scale
same,"Margin, SLC1A6 mRNA",−2.39 log 2 scale
same,"Margin, SLC16A4 mRNA",4 log 2 scale
same,"Margin, SLC40A1 mRNA",4.19 log 2 scale
same,"Margin, SNAI2 mRNA",4.92 log 2 scale
same,"Margin, SOCS3 mRNA",3.98 log 2 scale
same,"Margin, SOX2 mRNA",−3.64 log 2 scale
same,"Margin, SOX7 mRNA",4.13 log 2 scale
same,"Margin, SYNPO2 mRNA",4.46 log 2 scale
same,"Margin, TBX3 mRNA",6.42 log 2 scale
same,"Margin, TFAP2A mRNA",4.98 log 2 scale
same,"Margin, TFCP2L2 mRNA",3.87 log 2 scale
same,"Margin, TFCP2L4 mRNA",4.92 log 2 scale
same,"Margin, THBS2 mRNA",−3.73 log 2 scale
same,"Margin, TIMP4 mRNA",−2.9 log 2 scale
same,"Margin, TMEM46 mRNA",−3.57 log 2 scale
same,"Margin, TOX mRNA",−3.03 log 2 scale
same,"Margin, TRIM55 mRNA",4.24 log 2 scale
same,"Margin, TRPC4 mRNA",−2.52 log 2 scale
same,"Margin, UGT8 mRNA",−3.57 log 2 scale
same,"Margin, USP44 mRNA",−3.63 log 2 scale
same,"Margin, UTF1 mRNA",−2.47 log 2 scale
